pIC50: −log10 of the molar value. Calls of active or inactive are those of the source. The rule behind the calls is not given here.
Legend:
[1] = test system: BV-2; experiment: Antiinflammatory activity against mouse BV2 cells assessed as inhibition of LPS-induced TNFalpha production at 1 uM by enzyme immunoassay; format: functional
[2] = test system: BV-2; experiment: Antiinflammatory activity against mouse BV2 cells assessed as reduction in LPS-induced IL6 production at 1 uM by enzyme immunoassay; format: functional, cell-based
[3] = test system: BV-2; experiment: Antiinflammatory activity against mouse BV2 cells assessed as decrease in LPS-induced NO production at 1 to 5 uM pretreated with compound followed by LPS stimulation incubated for 4 to 48 hrs by enzyme immunoassay; format: functional, cell-based; conditions: dose 1-5 µM, time 4-48 hrs
[4] = test system: RPMI-8226; experiment: Growth inhibition of human RPMI8226 cells at 10 uM incubated for 48 hrs by sulforhodamine B assay relative to control; format: functional; conditions: read-out: GI
[5] = test system: NCI-H226; experiment: Growth inhibition of human NCI-H226 cells at 10 uM incubated for 48 hrs by sulforhodamine B assay relative to control; format: functional; conditions: read-out: GI
[6] = test system: NCI-H460; experiment: Growth inhibition of human NCI-H460 cells at 10 uM incubated for 48 hrs by sulforhodamine B assay relative to control; format: functional; conditions: read-out: GI
[7] = test system: HCT-116; experiment: Growth inhibition of human HCT-116 cells at 10 uM incubated for 48 hrs by sulforhodamine B assay relative to control; format: functional; conditions: read-out: GI
[8] = test system: SW-620; experiment: Growth inhibition of human SW-620 cells at 10 uM incubated for 48 hrs by sulforhodamine B assay relative to control; format: functional; conditions: read-out: GI
[9] = test system: UACC-257; experiment: Growth inhibition of human UACC-257 cells at 10 uM incubated for 48 hrs by sulforhodamine B assay relative to control; format: functional; conditions: read-out: GI
[10] = test system: UACC-62; experiment: Growth inhibition of human UACC-62 cells at 10 uM incubated for 48 hrs by sulforhodamine B assay relative to control; format: functional; conditions: read-out: GI
[11] = test system: IGROV-1; experiment: Growth inhibition of human IGROV-1 cells at 10 uM incubated for 48 hrs by sulforhodamine B assay relative to control; format: functional; conditions: read-out: GI
[12] = test system: OVCAR-3; experiment: Growth inhibition of human OVCAR-3 cells at 10 uM incubated for 48 hrs by sulforhodamine B assay relative to control; format: functional; conditions: read-out: GI
[13] = test system: OVCAR-4; experiment: Growth inhibition of human OVCAR-4 cells at 10 uM incubated for 48 hrs by sulforhodamine B assay relative to control; format: functional; conditions: read-out: GI
[14] = test system: OVCAR-5; experiment: Growth inhibition of human OVCAR-5 cells at 10 uM incubated for 48 hrs by sulforhodamine B assay relative to control; format: functional; conditions: read-out: GI
[15] = test system: CAKI-1; experiment: Growth inhibition of human CAKI-1 cells at 10 uM incubated for 48 hrs by sulforhodamine B assay relative to control; format: functional; conditions: read-out: GI
[16] = test system: TK-10; experiment: Growth inhibition of human TK-10 cells at 10 uM incubated for 48 hrs by sulforhodamine B assay relative to control; format: functional; conditions: read-out: GI
[17] = test system: MCF7; experiment: Growth inhibition of human MCF7 cells at 10 uM incubated for 48 hrs by sulforhodamine B assay relative to control; format: functional; conditions: read-out: GI
[18] = test system: T47D; experiment: Growth inhibition of human T47D cells at 10 uM incubated for 48 hrs by sulforhodamine B assay relative to control; format: functional; conditions: read-out: GI
[19] = test system: MDA-MB-468; experiment: Growth inhibition of human MDA-MB-468 cells at 10 uM incubated for 48 hrs by sulforhodamine B assay relative to control; format: functional; conditions: read-out: GI
[20] = test system: MDA-MB-231; experiment: Growth inhibition of human MDA-MB-231 cells at 10 uM incubated for 48 hrs by sulforhodamine B assay relative to control; format: functional; conditions: read-out: GI
[21] = test system: K562; experiment: Growth inhibition of human K562 cells at 10 uM incubated for 48 hrs by sulforhodamine B assay relative to control; format: functional; conditions: read-out: GI
[22] = test system: SR; experiment: Growth inhibition of human SR cells at 10 uM incubated for 48 hrs by sulforhodamine B assay relative to control; format: functional; conditions: read-out: GI
[23] = test system: HOP-62; experiment: Growth inhibition of human HOP-62 cells at 10 uM incubated for 48 hrs by sulforhodamine B assay relative to control; format: functional; conditions: read-out: GI
[24] = test system: HOP-92; experiment: Growth inhibition of human HOP-92 cells at 10 uM incubated for 48 hrs by sulforhodamine B assay relative to control; format: functional; conditions: read-out: GI
[25] = test system: SF-295; experiment: Growth inhibition of human SF-295 cells at 10 uM incubated for 48 hrs by sulforhodamine B assay relative to control; format: functional; conditions: read-out: GI
[26] = test system: U-251; experiment: Growth inhibition of human U-251 cells at 10 uM incubated for 48 hrs by sulforhodamine B assay relative to control; format: functional; conditions: read-out: GI
[27] = test system: SK-MEL-2; experiment: Growth inhibition of human SK-MEL-2 cells at 10 uM incubated for 48 hrs by sulforhodamine B assay relative to control; format: functional; conditions: read-out: GI
[28] = test system: UO-31; experiment: Growth inhibition of human UO-31 cells at 10 uM incubated for 48 hrs by sulforhodamine B assay relative to control; format: functional; conditions: read-out: GI
[29] = test system: RPMI-8226; experiment: Growth inhibition of human RPMI-8226 cells incubated for 48 hrs by sulforhodamine B assay; format: functional; conditions: dose 10 µM
[30] = test system: NCI-H226; experiment: Growth inhibition of human NCI-H226 cells incubated for 48 hrs by sulforhodamine B assay; format: functional
[31] = test system: NCI-H460; experiment: Growth inhibition of human NCI-H460 cells incubated for 48 hrs by sulforhodamine B assay; format: functional
[32] = test system: HCT-116; experiment: Growth inhibition of human HCT-116 cells incubated for 48 hrs by sulforhodamine B assay; format: functional
[33] = test system: SW-620; experiment: Growth inhibition of human SW-620 cells incubated for 48 hrs by sulforhodamine B assay; format: functional
[34] = test system: UACC-257; experiment: Growth inhibition of human UACC-257 cells incubated for 48 hrs by sulforhodamine B assay; format: functional
[35] = test system: UACC-62; experiment: Growth inhibition of human UACC-62 cells incubated for 48 hrs by sulforhodamine B assay; format: functional
[36] = test system: IGROV-1; experiment: Growth inhibition of human IGROV-1 cells incubated for 48 hrs by sulforhodamine B assay; format: functional
[37] = test system: OVCAR-3; experiment: Growth inhibition of human OVCAR-3 cells incubated for 48 hrs by sulforhodamine B assay; format: functional
[38] = test system: OVCAR-4; experiment: Growth inhibition of human OVCAR-4 cells incubated for 48 hrs by sulforhodamine B assay; format: functional
[39] = test system: OVCAR-5; experiment: Growth inhibition of human OVCAR-5 cells incubated for 48 hrs by sulforhodamine B assay; format: functional
[40] = test system: CAKI-1; experiment: Growth inhibition of human CAKI-1 cells incubated for 48 hrs by sulforhodamine B assay; format: functional
[41] = test system: TK-10; experiment: Growth inhibition of human TK-10 cells incubated for 48 hrs by sulforhodamine B assay; format: functional
[42] = test system: MCF7; experiment: Growth inhibition of human MCF7 cells incubated for 48 hrs by sulforhodamine B assay; format: functional
[43] = test system: T47D; experiment: Growth inhibition of human T47D cells incubated for 48 hrs by sulforhodamine B assay; format: functional
[44] = test system: MDA-MB-468; experiment: Growth inhibition of human MDA-MB-468 cells incubated for 48 hrs by sulforhodamine B assay; format: functional
[45] = test system: MDA-MB-231; experiment: Growth inhibition of human MDA-MB-231 cells incubated for 48 hrs by sulforhodamine B assay; format: functional
[46] = test system: K562; experiment: Growth inhibition of human K562 cells incubated for 48 hrs by sulforhodamine B assay; format: functional
[47] = test system: SR; experiment: Growth inhibition of human SR cells incubated for 48 hrs by sulforhodamine B assay; format: functional
[48] = test system: HOP-62; experiment: Growth inhibition of human HOP-62 cells incubated for 48 hrs by sulforhodamine B assay; format: functional
[49] = test system: HOP-92; experiment: Growth inhibition of human HOP-92 cells incubated for 48 hrs by sulforhodamine B assay; format: functional
[50] = test system: SF-295; experiment: Growth inhibition of human SF-295 cells incubated for 48 hrs by sulforhodamine B assay; format: functional
[51] = test system: U-251; experiment: Growth inhibition of human U-251 cells incubated for 48 hrs by sulforhodamine B assay; format: functional
[52] = test system: SK-MEL-2; experiment: Growth inhibition of human SK-MEL-2 cells incubated for 48 hrs by sulforhodamine B assay; format: functional
[53] = test system: UO-31; experiment: Growth inhibition of human UO-31 cells incubated for 48 hrs by sulforhodamine B assay; format: functional
[54] = test system: Panel NCI-60 (60 carcinoma cell lines); experiment: Growth inhibition of human Panel NCI-60 (60 carcinoma cell lines) incubated for 48 hrs by sulforhodamine B assay; format: functional
[55] = Therapeutic index, ratio of LC50 for human Panel NCI-60 (60 carcinoma cell lines) to GI50 for human Panel NCI-60 (60 carcinoma cell lines); format: functional
[56] = test system: BV-2; experiment: Cytotoxicity against mouse BV2 cells incubated for 48 hrs by MTT assay; format: cell-based; conditions: BV-2, 48 h
[57] = read-out: LC50 (the source's name)

O=C1COCCN1c1ccc(NCc2cn(Cc3ccc(F)cc3)c3ccccc23)cc1
Activity [1]: Active
Activity [2]: Active
Activity [3]: Active
inhibition of growth at 10 µM [4]: 98%
inhibition of growth at 10 µM [5]: 100%
inhibition of growth at 10 µM [6]: 93%
inhibition of growth at 10 µM [7]: 96%
inhibition of growth at 10 µM [8]: 87%
inhibition of growth at 10 µM [9]: 100%
inhibition of growth at 10 µM [10]: 100%
inhibition of growth at 10 µM [11]: 100%
inhibition of growth at 10 µM [12]: 100%
inhibition of growth at 10 µM [13]: 100%
inhibition of growth at 10 µM [14]: 100%
inhibition of growth at 10 µM [15]: 100%
inhibition of growth at 10 µM [16]: 100%
inhibition of growth at 10 µM [17]: 100%
inhibition of growth at 10 µM [18]: 99%
inhibition of growth at 10 µM [19]: 100%
inhibition of growth at 10 µM [20]: 72%
inhibition of growth at 10 µM [21]: 89%
inhibition of growth at 10 µM [22]: 68%
inhibition of growth at 10 µM [23]: 77%
inhibition of growth at 10 µM [24]: 96%
inhibition of growth at 10 µM [25]: 90%
inhibition of growth at 10 µM [26]: 80%
inhibition of growth at 10 µM [27]: 100%
inhibition of growth at 10 µM [28]: 96%
GI50 [29]: 540 nM
GI50 [30]: 40 nM
CC50 [30, 57]: 1100 nM
GI50 [31]: 120 nM
GI50 [32]: 50 nM
CC50 [32, 57]: > 100000 nM
GI50 [33]: 480 nM
GI50 [34]: 200 nM
GI50 [35]: 40 nM
CC50 [35, 57]: 800 nM
GI50 [36]: 30 nM
CC50 [36, 57]: > 100000 nM
GI50 [37]: 280 nM
GI50 [38]: 150 nM
GI50 [39]: 40 nM
CC50 [39, 57]: > 100000 nM
GI50 [40]: 20 nM
CC50 [40, 57]: > 100000 nM
GI50 [41]: 40 nM
CC50 [41, 57]: > 100000 nM
GI50 [42]: 110 nM
GI50 [43]: 70 nM
GI50 [44]: 20 nM
CC50 [44, 57]: 500 nM
GI50 [45]: 3800 nM
GI50 [46]: 1510 nM
GI50 [47]: 4500 nM
GI50 [48]: 1470 nM
GI50 [49]: 1540 nM
GI50 [50]: 1090 nM
GI50 [51]: 1410 nM
GI50 [52]: 1200 nM
GI50 [53]: 2750 nM
GI50 [54]: 1310 nM
TGI [54]: 15100 nM
CC50 [54, 57]: 70800 nM
TI [55]: 54
pIC50 [56]: < 5.00

Cc1ccc(S(=O)(=O)n2cc(C3C(Cl)C(=O)N3c3ccc(N4CCOCC4=O)cc3)c3ccccc32)cc1 (stereo not given)
Activity [1]: Active
Activity [2]: Active
Activity [3]: Active
inhibition of growth at 10 µM [4]: 78%
inhibition of growth at 10 µM [7]: 83%
inhibition of growth at 10 µM [8]: 74%
inhibition of growth at 10 µM [12]: 70%
inhibition of growth at 10 µM [15]: 75%
inhibition of growth at 10 µM [17]: 80%
inhibition of growth at 10 µM [20]: 83%
inhibition of growth at 10 µM [21]: 77%
inhibition of growth at 10 µM [22]: 75%
pIC50 [56]: < 5.00

C=CCn1cc(C2C(Cl)C(=O)N2c2ccc(N3CCOCC3=O)cc2)c2ccccc21 (stereo not given)
pIC50 [56]: < 5.00
